From patent US6048865A, “N^6 -substituted-adenosine-5'-uronamides as adenosine receptor modulator” (priority 1998, dated 2000) come the findings set out here.

Entries after “also recorded” stand apart in the source; their conditions may differ. Where two headings read alike, the source gives them in different places.

Experiment [1] concerns the target T1, rat A3 adenosine receptor (Rattus norvegicus, UniProt P28647).
T1 sequence (P28647 1-320): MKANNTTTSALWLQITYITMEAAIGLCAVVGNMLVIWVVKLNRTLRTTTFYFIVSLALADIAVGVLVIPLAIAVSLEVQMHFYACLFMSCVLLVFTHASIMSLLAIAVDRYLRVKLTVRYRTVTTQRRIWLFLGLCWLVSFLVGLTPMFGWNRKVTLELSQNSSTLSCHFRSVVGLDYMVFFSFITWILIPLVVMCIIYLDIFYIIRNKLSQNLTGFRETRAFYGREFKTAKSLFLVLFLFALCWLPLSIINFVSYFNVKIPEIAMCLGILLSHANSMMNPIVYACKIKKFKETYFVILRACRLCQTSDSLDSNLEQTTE
Procedure: (§1) Procedures for preparing rat brain membranes and Chinese hamster ovary (CHO) cell membranes were as reported^30, 38, 44. For binding experients, membrane homogenates were frozen and stored at -20° C. for greater than 2 months. Adenosine deaminase (ADA) was purchased from Boehringer Mannheim (Indianapolis, Ind.).
(§2) Inhibitors were routinely dissolved in DMSO. […] Incubations were carried out in duplicate for 1 h at 37° C., and were terminated by rapid filtration over Whatman GF/B filters using a Brandell cell harvester (Brandell, Gaithersburg, Md.). Tubes were washed three times with 3 mL of buffer. Radioactivity was determined in a Beckman gamma 5500B γ-counter.
(§3) Nonspecific binding was determined in the presence of 200 μM NECA. […] Additional deaminase was not added during incubation with the radioligand.

In experiment [2] the target is T2, human A3 adenosine receptor (Homo sapiens, UniProt P0DMS8).
T2 construct: expressed in transfected cells; host or cells: HEK-293 cells
T2 sequence (P0DMS8 1-318): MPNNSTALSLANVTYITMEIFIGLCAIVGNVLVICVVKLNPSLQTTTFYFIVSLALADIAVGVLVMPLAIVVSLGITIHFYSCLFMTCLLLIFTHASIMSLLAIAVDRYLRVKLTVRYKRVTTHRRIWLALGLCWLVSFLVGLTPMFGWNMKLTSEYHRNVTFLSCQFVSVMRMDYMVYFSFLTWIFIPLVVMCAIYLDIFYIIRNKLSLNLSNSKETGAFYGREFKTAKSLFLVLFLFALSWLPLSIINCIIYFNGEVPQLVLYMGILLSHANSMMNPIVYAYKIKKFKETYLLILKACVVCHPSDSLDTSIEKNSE
The experiment is described as follows: Binding of [125I]-AB-MECA to HEK-293 cells stably expressing the human A3 receptor. Particulars: read-out: affinity at human A3 adenosine receptors. From the text: Inhibitors were routinely dissolved in DMSO.

A further experiment concerns the target T3, rat A3 receptor (Rattus norvegicus, UniProt P28647).
T3 sequence (P28647 1-320): T1 sequence (P28647 1-320)
The experiment is described as follows: Binding of [35S]GTP-γ-S to rat RBL-2H3 mast cell membranes. The experiment is classed as biochemical. The procedure: The binding for [^35 S]GTP-y-S (Ameersham, Chicago Ill., specific activity 1275 Ci/mmol) was carried out using rat RBL-2H3 mast cell membranes by the general method of Lorenzen et al.^47 Membranes were suspended in a buffer containing 50 mM Tris, 3 units/mL adenosine deaminase, 100 mM NaCl, and 10 mM MgCl2 (pH 7.4) and a protein concentration of 1 to 10 μg per tube. The membrane suspension was preincubated with […], R-PIA and/or riboflavin in a final volume of 125 μL buffer at 30° C. for 60 min and then transferred to ice for 20 min. [^35 S]GTP-γy-S was added to a final concentration of 0.1 nM in a total volume of 500 μL and the mixture was incubated for 30 min at 30° C. Non-specific binding was determined in the presence of 10 μM GTP-γ-S (Sigma, St. Louis Mo.). Incubation of the reaction mixture was terminated by filtration over a GF/B glass filter using a Brandell cell harvester and washed with the same buffer.
The assay involved the agonist-induced inhibition of binding of guanine nucleotide to rat RBL-2H3 mast cell membranes, which contain a high density of A3 receptors.
(GTPγS resists hydrolysis and so accumulates on activated G proteins.)

In experiment [3] the target is T1, rat A3 adenosine receptor. The source holds these as a separate data set.
Procedure: as §1, §2, §3
The target in experiment [4] is T4, rat brain A2A adenosine receptor (Rattus norvegicus, UniProt P30543).
T4 construct: A2A receptors for rat striatal membranes; from tissue; host or cells: rat striatal membranes
Briefly: Displacement of specific [3H]CGS 21680 binding in rat striatal membranes. The note with it: rat striatal membranes, [3H]CGS 21680; Ki ± SEM, n = 3-6.
Procedure: For binding experients, membrane homogenates were frozen and stored at -20° C. for greater than 2 months. Adenosine deaminase (ADA) was purchased from Boehringer Mannheim (Indianapolis, Ind.).
as §3

Experiment [5] has as its target T5, rat brain A1 adenosine receptor (Rattus norvegicus, UniProt P25099).
T5 sequence (P25099 1-326): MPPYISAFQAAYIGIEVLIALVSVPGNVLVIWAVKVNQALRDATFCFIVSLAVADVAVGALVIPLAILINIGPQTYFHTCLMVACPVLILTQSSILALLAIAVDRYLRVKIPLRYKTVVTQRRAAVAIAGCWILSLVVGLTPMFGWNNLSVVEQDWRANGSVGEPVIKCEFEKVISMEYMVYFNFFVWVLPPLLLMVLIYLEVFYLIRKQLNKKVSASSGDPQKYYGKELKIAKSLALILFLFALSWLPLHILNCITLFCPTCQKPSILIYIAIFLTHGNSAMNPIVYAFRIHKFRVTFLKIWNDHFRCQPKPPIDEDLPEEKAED
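Throughout, for A1/A3: radioligand binding on membrane homogenates, 1 h incubation at 37 °C in duplicate, gamma counting of filter-bound radioactivity, nonspecific binding defined using 200 µM NECA.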
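Throughout, for A2A/A3: radioligand binding on membrane homogenates, 1 h incubation at 37 °C in duplicate, gamma counting of filter-bound radioactivity, nonspecific binding defined using 200 µM NECA.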
Procedure: Procedures for preparing rat brain membranes and Chinese hamster ovary (CHO) cell membranes were as reported^30, 38, 44. For binding experients, membrane homogenates were frozen and stored at -20° C. for greater than 2 months.
as §3

T4 sequence (P30543 whole entry): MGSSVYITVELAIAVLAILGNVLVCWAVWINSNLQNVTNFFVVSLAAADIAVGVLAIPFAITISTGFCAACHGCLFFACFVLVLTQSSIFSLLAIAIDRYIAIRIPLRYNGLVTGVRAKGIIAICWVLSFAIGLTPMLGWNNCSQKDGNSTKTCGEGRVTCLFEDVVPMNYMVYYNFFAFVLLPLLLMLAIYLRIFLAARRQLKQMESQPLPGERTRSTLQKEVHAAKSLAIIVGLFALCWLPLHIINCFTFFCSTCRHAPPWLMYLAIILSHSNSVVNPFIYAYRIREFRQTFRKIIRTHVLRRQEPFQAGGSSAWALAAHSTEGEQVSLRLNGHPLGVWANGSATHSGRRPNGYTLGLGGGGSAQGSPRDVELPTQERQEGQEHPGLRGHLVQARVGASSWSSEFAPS

Turning to `CCNC(=O)[C@H]1O[C@@H](n2cnc3c(NC(=O)Nc4ccc(S(N)(=O)=O)cc4)ncnc32)[C@H](O)[C@@H]1O` [Compound 3g, N^6-(4-sulfonamido-phenylcarbamoyl)-adenosine-5'-N-ethyluronamide], the Ki is 9.7 to 107 nM in experiment [1]; 9.7 nM in experiment [1] (read-out: affinity at A3 receptors, rat A3, running text); 56.1 ± 9.1 nM in experiment [2]; 9.73 ± 0.75 nM in experiment [3]; 1180 ± 360 nM in experiment [4]; 453 ± 141 nM in experiment [5]. The A1/A3 in experiment [1] (ratio of Ki (A1) to Ki (A3), rat) was determined as 46.5. In experiment [1] (ratio of Ki (A2A) to Ki (A3), rat), the A2A/A3 came out at 121.2. Further, the “effect on binding of [35S]GTP-γ-S” value at rat A3 receptor (FIG. 1, rat RBL-2H3 mast cell membranes) is “about as effective as the potent A3 agonists I-AB-MECA and Cl-IB-MECA; also recorded: greater potency than NECA; also recorded: increased binding of [^35 S]GTP-γ-S in a dose dependent manner”. For the same molecule, the “agonism at rat A3 receptor” value at rat A3 receptor (functional assay, rat RBL-2H3 mast cell membranes) is listed as “full agonist”.
